From PMC11513924, “Addressing the Intracellular Vestibule of the Plasmodial Lactate Transporter PfFNT by p-Substituted Inhibitors Amplifies In Vitro Activity” (Journal of Medicinal Chemistry, 2024)
Like-named read-outs stand apart in the source and are kept apart here.

Columns and labels:
[1] = molecular target: T1, PfFNT G107S (Plasmodium falciparum, UniProt O77389, G107S); assay: Yeast-based 14C-lactate transport assay, PfFNT G107S resistance mutant; type: cell-based
T1 construct: expressed in transfected cells; host or cells: Saccharomyces cerevisiae (yeast transport assay; strain as for wild type, inferred from the shared method)
T1 sequence (O77389 1-309 G107S): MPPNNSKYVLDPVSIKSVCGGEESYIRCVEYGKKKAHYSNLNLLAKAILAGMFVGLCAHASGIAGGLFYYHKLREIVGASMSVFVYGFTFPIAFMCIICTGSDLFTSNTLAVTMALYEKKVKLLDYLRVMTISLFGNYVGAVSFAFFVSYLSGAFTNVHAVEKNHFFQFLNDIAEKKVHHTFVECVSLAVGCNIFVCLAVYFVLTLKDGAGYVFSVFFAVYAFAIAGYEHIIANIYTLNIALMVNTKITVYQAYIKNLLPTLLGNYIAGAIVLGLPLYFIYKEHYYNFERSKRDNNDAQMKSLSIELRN
Experimental: Lactate transport functionality of PfFNT was assayed as described before.[4] Briefly, Saccharomyces cerevisiae W303-1A jen1Δady2Δcells[32] (MATa, can1-100, ade2-loc, his3-11-15, leu2-3,-112, trp1-1-1, ura3-1, jen1::kanMX4, ady2::hphMX4) kindly provided by M. Casal expressing PfFNT was grown at 29 °C to an OD600 of 1 (±0.1). Harvested cells were resuspended to an OD600 of 50 (±5) in 50 mM HEPES/Tris, pH 6.8 (±0.1). 10–15 min prior to the assay, 80 μL of yeast suspension were added to 1 μL of DMSO with or without inhibitor in a 1.5 mL reaction tube at 18 °C. Twenty μL of L-lactate solution spiked with [1-^14C]-L-lactate (Hartmann Analytic) was added yielding a 1 mM inward gradient with 0.04 μCi label. Transport was stopped after 30 s by abrupt dilution with 1 mL of ice-cold water, vacuum filtration via GF/C filter membranes (Whatman), and washing with 7 mL of ice-cold water. The radio label was analyzed by liquid scintillation counting in 3 mL of scintillation cocktail (Rotiszint eco plus, Carl Roth) using a Packard TriCarb 2900 TR (PerkinElmer Inc.).
Transport assays in yeast were done in triplicate biological replicates. At least nine technical replicates were measured around the IC50 value, concentrations with no or full inhibition were determined from at least three technical replicates. EC50-values were determined from 2 to 4 biological replicates. IC50 and EC50 curves were fitted by the Hill equation with variable slope (Graph Pad Prism 10). Error bars denote ± SEM (for n ≥ 3) or ± range (for n = 2). For the EC50-value of 7a the error of the fitting of the curve is given. Cytotoxicity was determined from biological triplicates; error is shown as SEM.

[2] = tested on: Plasmodium falciparum 3D7 parasites; assay: P. falciparum 3D7 culture growth assay in erythrocytes (in vitro activity); type: cell-based; details: Plasmodium falciparum, 3D7, Erythrocyte; for activity at 0.05 µM / activity at 0.1 µM / activity at 0.2 µM / EC50: 48 h; for activity at 0.05 µM: read-out: % Growth at 50 nM (in vitro, 3D7); for activity at 0.1 µM: read-out: % Growth at 100 nM (in vitro, 3D7); for activity at 0.2 µM: read-out: % Growth at 200 nM (in vitro, 3D7); for EC50: read-out: EC50 (in vitro, 3D7)
Method in brief: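 Parasitemia of P. falciparum 3D7 in erythrocyte culture was measured by flow cytometry and growth expressed as % of untreated control.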

[3] = tested on: HepG2 cells; type: cell-based; details: human
Experimental: (§1) HEK293T and HepG2 cells were precultured in Dulbecco’s modified Eagle medium with 10% fetal bovine serum (FBS, Gibco, #10270106) in 96-well plates (Sarstedt, TC-treated, #83.3924) at a density of 20,000 cells per well. For ATP quantification, commercial CellTiterGlo was used according to the manufacturer’s instructions. For the resazurin assay, the culture medium was removed, and the cells were incubated in 120 μL of a 66 μM resazurin solution in PBS (SigmaAldrich, #R7017) at 37 °C for 2 h, for fluorescence read-out (λex/λem = 544/590 nm) using a microplate reader (Spark, Tecan Group). Nuclei were counted by microscopy (ImageXpress MicroXL, Molecular Devices) after fixation with 4% paraformaldehyde in PBS, and 15 min incubation at room temperature with Hoechst33342. Quantification was done using the “Cell Proliferation High-Throughput” algorithm (MetaXpress Software, Molecular Devices). All values were normalized to vehicle control (DMSO).

[4] = tested on: HEK293 cells; type: cell-based; details: human
Experimental: as §1

[5] = tested on: albumin; assay: Plasma protein (albumin) binding by ultracentrifugation; type: in vitro ADME; details: pooled human plasma; for albumin binding: 5 μM
Experimental: Clearance, half-life and plasma protein binding were assayed at TGC LifeScience, Kolkata, India, as described before.[36] Test compounds were incubated in duplicate in 96-well plates at 1 μM concentration with pooled human liver microsomes in 0.1 M phosphate buffer, pH 7.4 (0.4 mg mL^–1 final protein concentration; XenoTech, Lenexa, KS) in the presence and absence of 1 mM NADPH. Metabolism reactions were stopped by addition of 300 μL of ice-cold acetonitrile containing carbamazepine at 0.0236 μg mL^–1 as an internal standard, collection and analysis of the supernatant by LC–MS/MS (Agilent Rapid Resolution HPLC, AB SCIEX 4500 MS). The relative loss of the test compound over time was used to determine the first order rate constant for calculation of the in vitro intrinsic clearance and half-life.[37] Plasma protein binding was determined by ultracentrifugation from pooled human plasma spiked with 5 μM test compound. Aliquots were transferred immediately (total plasma concentration) or after 1 h at 37 °C (protein bound fraction) to ice-cold acetonitrile containing 0.0236 μg mL^–1 carbamazepine as an internal standard, ultracentrifuged for 4 h at 37 °C (Beckman Optima L-80XP), and analyzed by LC–MS/MS (Agilent Rapid Resolution HPLC, AB SCIEX 4500 QTRAP MS).

| Structure (SMILES) | IC50 [1] | activity at 0.05 µM ([2]; 50 nM compound, % of untreated control) | activity at 0.1 µM ([2]; 100 nM compound, % of untreated control) | activity at 0.2 µM ([2]; 200 nM compound, % of untreated control) | inhibition at 0.05 µM ([2]; 50 nM compound, 100 minus % growth, read-out: inhibitory activity at 50 nM (in vitro, 3D7)) | EC50 ([2]; cultures in erythrocytes) | concentration above which nuclei count (proliferation) starts to decline slightly [3] | concentration above which nuclei count (proliferation) starts to decline slightly [4] | unbound fraction in plasma [5] | albumin binding [5] | activity at 0.05 µM [2] | activity at 0.1 µM [2] | activity at 0.2 µM [2] | EC50 [2] |
| --- | --- | --- | --- | --- | --- | --- | --- | --- | --- | --- | --- | --- | --- | --- |
| CCCNc1ccc(C(=O)/C=C(\O)C(F)(F)C(F)(F)F)cn1 [7e, 4,4,5,5,5-Pentafluoro-3-hydroxy-1-(6-(propylamino)pyridin-3-yl)pent-2-en-1-one] | 630 nM | 7% | 4% | 2% | 93% | 14.8 nM | above 10 μM | above 10 μM | 1.54% | 98.46% |  |  |  |  |
| CC(=O)Nc1ccc(C(=O)/C=C(\O)C(F)(F)C(F)(F)F)cn1 [8a, N-[5-(4,4,5,5,5-Pentafluoro-3-hydroxypent-2-enoyl)pyridin-2-yl]acetamide] | 12000 nM |  |  |  |  |  | above 10 μM | above 10 μM | 6.31% | 93.69% | 50% | 23% | 8% | 49.8 nM |
